# Measured values published in patent US20240415914A1, “Water Dispersible Cannabinoid Compositions” (priority 2021, published 2024).
# Where two headings read alike, the source gives them in different places.
# What was measured:
# [1] = Stability of cannabinoid and Vitamin E components of Beverage 2 (AB Red) stored at 8° C. and 21-25° C., LCMSMS over 570 days
# Protocol: The LCMSMS was calibrated for 0-50 ng/ml cannabinoids with the same resin material used in the preparation of the concentrates. At each time period, 100 μml of beverage was diluted with 10 ml of methanol and injected into the LCMSMS for analysis.
# [2] = format: physicochemical; conditions: stored at room temperature (21-25° C.)
# Protocol: At each time period, 0.05 g of powder was dissolved in 10 ml-15 of ethanol, diluted to fall within the analytical range, and injected into the LCMSMS for analysis.
smiles,measurement,setting,value
"CCCc1cc(O)c2c(c1)OC(C)(C)[C@@H]1CCC(C)=C[C@@H]21 [THCV, delta-9-tetrahydrocannabivarin]",Stability of Cannabinoids in AB Red,"[1]; 8° C., 0 days",3.22 µg/mL
same,Stability of Cannabinoids in AB Red,"[1]; 8° C., 1 days",3.19 µg/mL
same,Stability of Cannabinoids in AB Red,"[1]; 8° C., 2 days",3.17 µg/mL
same,Stability of Cannabinoids in AB Red,"[1]; 8° C., 3 days",3.20 µg/mL
same,Stability of Cannabinoids in AB Red,"[1]; 8° C., 5 days",3.24 µg/mL
same,Stability of Cannabinoids in AB Red,"[1]; 8° C., 8 days",3.17 µg/mL
same,Stability of Cannabinoids in AB Red,"[1]; 8° C., 9 days",3.14 µg/mL
same,Stability of Cannabinoids in AB Red,"[1]; 8° C., 10 days",3.14 µg/mL
same,Stability of Cannabinoids in AB Red,"[1]; 8° C., 11 days",3.24 µg/mL
same,Stability of Cannabinoids in AB Red,"[1]; 8° C., 12 days",3.25 µg/mL
same,Stability of Cannabinoids in AB Red,"[1]; 8° C., 15 days",3.19 µg/mL
same,Stability of Cannabinoids in AB Red,"[1]; 8° C., 16 days",3.25 µg/mL
same,Stability of Cannabinoids in AB Red,"[1]; 8° C., 17 days",3.12 µg/mL
same,Stability of Cannabinoids in AB Red,"[1]; 8° C., 18 days",3.17 µg/mL
same,Stability of Cannabinoids in AB Red,"[1]; 8° C., 19 days",3.19 µg/mL
same,Stability of Cannabinoids in AB Red,"[1]; 8° C., 22 days",3.22 µg/mL
same,Stability of Cannabinoids in AB Red,"[1]; 8° C., 23 days",3.25 µg/mL
same,Stability of Cannabinoids in AB Red,"[1]; 8° C., 24 days",3.15 µg/mL
same,Stability of Cannabinoids in AB Red,"[1]; 8° C., 25 days",3.25 µg/mL
same,Stability of Cannabinoids in AB Red,"[1]; 8° C., 26 days",3.13 µg/mL
same,Stability of Cannabinoids in AB Red,"[1]; 8° C., 29 days",3.22 µg/mL
same,Stability of Cannabinoids in AB Red,"[1]; 8° C., 30 days",3.20 µg/mL
same,Stability of Cannabinoids in AB Red,"[1]; 8° C., 60 days",3.11 µg/mL
same,Stability of Cannabinoids in AB Red,"[1]; 8° C., 90 days",3.10 µg/mL
same,Stability of Cannabinoids in AB Red,"[1]; 8° C., 120 days",3.10 µg/mL
same,Stability of Cannabinoids in AB Red,"[1]; 8° C., 150 days",3.15 µg/mL
same,Stability of Cannabinoids in AB Red,"[1]; 8° C., 180 days",3.10 µg/mL
same,Stability of Cannabinoids in AB Red,"[1]; 8° C., 210 days",3.15 µg/mL
same,Stability of Cannabinoids in AB Red,"[1]; 8° C., 240 days",3.08 µg/mL
same,Stability of Cannabinoids in AB Red,"[1]; 8° C., 270 days",3.15 µg/mL
same,Stability of Cannabinoids in AB Red,"[1]; 8° C., 300 days",3.15 µg/mL
same,Stability of Cannabinoids in AB Red,"[1]; 8° C., 330 days",3.15 µg/mL
same,Stability of Cannabinoids in AB Red,"[1]; 8° C., 390 days",3.08 µg/mL
same,Stability of Cannabinoids in AB Red,"[1]; 8° C., 420 days",3.13 µg/mL
same,Stability of Cannabinoids in AB Red,"[1]; 8° C., 450 days",3.08 µg/mL
same,Stability of Cannabinoids in AB Red,"[1]; 8° C., 480 days",3.05 µg/mL
same,Stability of Cannabinoids in AB Red,"[1]; 8° C., 510 days",2.95 µg/mL
same,Stability of Cannabinoids in AB Red,"[1]; 8° C., 540 days",2.99 µg/mL
same,Stability of Cannabinoids in AB Red,"[1]; 8° C., 570 days",2.95 µg/mL
same,Stability of Cannabinoids in AB Red,"[1]; 21-25° C., 0 days",3.22 µg/mL
same,Stability of Cannabinoids in AB Red,"[1]; 21-25° C., 1 days",3.13 µg/mL
same,Stability of Cannabinoids in AB Red,"[1]; 21-25° C., 2 days",3.20 µg/mL
same,Stability of Cannabinoids in AB Red,"[1]; 21-25° C., 3 days",3.25 µg/mL
same,Stability of Cannabinoids in AB Red,"[1]; 21-25° C., 5 days",3.25 µg/mL
same,Stability of Cannabinoids in AB Red,"[1]; 21-25° C., 8 days",3.19 µg/mL
same,Stability of Cannabinoids in AB Red,"[1]; 21-25° C., 9 days",3.17 µg/mL
same,Stability of Cannabinoids in AB Red,"[1]; 21-25° C., 10 days",3.09 µg/mL
same,Stability of Cannabinoids in AB Red,"[1]; 21-25° C., 11 days",3.24 µg/mL
same,Stability of Cannabinoids in AB Red,"[1]; 21-25° C., 12 days",3.24 µg/mL
same,Stability of Cannabinoids in AB Red,"[1]; 21-25° C., 15 days",3.20 µg/mL
same,Stability of Cannabinoids in AB Red,"[1]; 21-25° C., 16 days",3.20 µg/mL
same,Stability of Cannabinoids in AB Red,"[1]; 21-25° C., 17 days",3.11 µg/mL
same,Stability of Cannabinoids in AB Red,"[1]; 21-25° C., 18 days",3.19 µg/mL
same,Stability of Cannabinoids in AB Red,"[1]; 21-25° C., 19 days",3.19 µg/mL
same,Stability of Cannabinoids in AB Red,"[1]; 21-25° C., 22 days",3.18 µg/mL
same,Stability of Cannabinoids in AB Red,"[1]; 21-25° C., 23 days",3.23 µg/mL
same,Stability of Cannabinoids in AB Red,"[1]; 21-25° C., 24 days",3.25 µg/mL
same,Stability of Cannabinoids in AB Red,"[1]; 21-25° C., 25 days",3.24 µg/mL
same,Stability of Cannabinoids in AB Red,"[1]; 21-25° C., 26 days",3.11 µg/mL
same,Stability of Cannabinoids in AB Red,"[1]; 21-25° C., 29 days",3.15 µg/mL
same,Stability of Cannabinoids in AB Red,"[1]; 21-25° C., 30 days",3.15 µg/mL
same,Stability of Cannabinoids in AB Red,"[1]; 21-25° C., 60 days",3.18 µg/mL
same,Stability of Cannabinoids in AB Red,"[1]; 21-25° C., 90 days",3.05 µg/mL
same,Stability of Cannabinoids in AB Red,"[1]; 21-25° C., 120 days",3.09 µg/mL
same,Stability of Cannabinoids in AB Red,"[1]; 21-25° C., 150 days",3.17 µg/mL
same,Stability of Cannabinoids in AB Red,"[1]; 21-25° C., 180 days",3.10 µg/mL
same,Stability of Cannabinoids in AB Red,"[1]; 21-25° C., 210 days",3.03 µg/mL
same,Stability of Cannabinoids in AB Red,"[1]; 21-25° C., 240 days",3.18 µg/mL
same,Stability of Cannabinoids in AB Red,"[1]; 21-25° C., 270 days",3.04 µg/mL
same,Stability of Cannabinoids in AB Red,"[1]; 21-25° C., 300 days",3.14 µg/mL
same,Stability of Cannabinoids in AB Red,"[1]; 21-25° C., 330 days",3.19 µg/mL
same,Stability of Cannabinoids in AB Red,"[1]; 21-25° C., 390 days",3.04 µg/mL
same,Stability of Cannabinoids in AB Red,"[1]; 21-25° C., 420 days",3.10 µg/mL
same,Stability of Cannabinoids in AB Red,"[1]; 21-25° C., 450 days",3.14 µg/mL
same,Stability of Cannabinoids in AB Red,"[1]; 21-25° C., 480 days",3.04 µg/mL
same,Stability of Cannabinoids in AB Red,"[1]; 21-25° C., 510 days",3.01 µg/mL
same,Stability of Cannabinoids in AB Red,"[1]; 21-25° C., 540 days",2.95 µg/mL
same,Stability of Cannabinoids in AB Red,"[1]; 21-25° C., 570 days",2.98 µg/mL
same,Stability in Powder Concentrate (content by LCMSMS),[2]; day 0,0.680 mg/g powder
same,Stability in Powder Concentrate (content by LCMSMS),[2]; day 1,0.685 mg/g powder
same,Stability in Powder Concentrate (content by LCMSMS),[2]; day 2,0.699 mg/g powder
same,Stability in Powder Concentrate (content by LCMSMS),[2]; day 3,0.698 mg/g powder
same,Stability in Powder Concentrate (content by LCMSMS),[2]; day 5,0.676 mg/g powder
same,Stability in Powder Concentrate (content by LCMSMS),[2]; day 8,0.685 mg/g powder
same,Stability in Powder Concentrate (content by LCMSMS),[2]; day 9,0.693 mg/g powder
same,Stability in Powder Concentrate (content by LCMSMS),[2]; day 10,0.706 mg/g powder
same,Stability in Powder Concentrate (content by LCMSMS),[2]; day 11,0.708 mg/g powder
same,Stability in Powder Concentrate (content by LCMSMS),[2]; day 12,0.698 mg/g powder
same,Stability in Powder Concentrate (content by LCMSMS),[2]; day 15,0.684 mg/g powder
same,Stability in Powder Concentrate (content by LCMSMS),[2]; day 16,0.658 mg/g powder
same,Stability in Powder Concentrate (content by LCMSMS),[2]; day 17,0.681 mg/g powder
same,Stability in Powder Concentrate (content by LCMSMS),[2]; day 18,0.690 mg/g powder
same,Stability in Powder Concentrate (content by LCMSMS),[2]; day 19,0.705 mg/g powder
same,Stability in Powder Concentrate (content by LCMSMS),[2]; day 22,0.703 mg/g powder
same,Stability in Powder Concentrate (content by LCMSMS),[2]; day 23,0.687 mg/g powder
same,Stability in Powder Concentrate (content by LCMSMS),[2]; day 24,0.668 mg/g powder
same,Stability in Powder Concentrate (content by LCMSMS),[2]; day 25,0.689 mg/g powder
same,Stability in Powder Concentrate (content by LCMSMS),[2]; day 26,0.686 mg/g powder
same,Stability in Powder Concentrate (content by LCMSMS),[2]; day 29,0.706 mg/g powder
same,Stability in Powder Concentrate (content by LCMSMS),[2]; day 30,0.659 mg/g powder
same,Stability in Powder Concentrate (content by LCMSMS),[2]; day 60,0.702 mg/g powder
same,Stability in Powder Concentrate (content by LCMSMS),[2]; day 90,0.707 mg/g powder
same,Stability in Powder Concentrate (content by LCMSMS),[2]; day 120,0.658 mg/g powder
same,Stability in Powder Concentrate (content by LCMSMS),[2]; day 150,0.695 mg/g powder
same,Stability in Powder Concentrate (content by LCMSMS),[2]; day 180,0.685 mg/g powder
same,Stability in Powder Concentrate (content by LCMSMS),[2]; day 210,0.662 mg/g powder
same,Stability in Powder Concentrate (content by LCMSMS),[2]; day 240,0.700 mg/g powder
same,Stability in Powder Concentrate (content by LCMSMS),[2]; day 270,0.670 mg/g powder
same,Stability in Powder Concentrate (content by LCMSMS),[2]; day 300,0.685 mg/g powder
same,Stability in Powder Concentrate (content by LCMSMS),[2]; day 330,0.691 mg/g powder
same,Stability in Powder Concentrate (content by LCMSMS),[2]; day 360,0.668 mg/g powder
same,Stability in Powder Concentrate (content by LCMSMS),[2]; day 390,0.680 mg/g powder
same,Stability in Powder Concentrate (content by LCMSMS),[2]; day 420,0.671 mg/g powder
same,Stability in Powder Concentrate (content by LCMSMS),[2]; day 450,0.680 mg/g powder
same,Stability in Powder Concentrate (content by LCMSMS),[2]; day 480,0.695 mg/g powder
same,Stability in Powder Concentrate (content by LCMSMS),[2]; day 510,0.696 mg/g powder
same,Stability in Powder Concentrate (content by LCMSMS),[2]; day 540,0.664 mg/g powder
same,Stability in Powder Concentrate (content by LCMSMS),[2]; day 570,0.686 mg/g powder
